The test system of one experiment is HL-60. As to the kind of experiment: Cytotoxicity against human HL60 cells after 72 hrs by WST8 assay. Type of experiment: functional, cell-based.
In a further experiment the test system is L1210. Kind of experiment: Cytotoxicity against mouse L1210 cells after 72 hrs by WST8 assay. Type of experiment: functional, cell-based. (In general: Tetrazolium dyes change colour on reduction, which living cells bring about.)

In brackets after ≈: the same amount, converted by molar mass.

Consider `C=C1[C@H]2C[C@H]3OC(=O)/C=C\C=C\[C@H]([C@@H](C)O)OCC/C(C)=C/C(=O)OC[C@@]4(CCC(C)=C[C@H]4O2)[C@]13C`, for which the IC50 (as a rule, the concentration that inhibits the measured activity by half) was found to be 25 ng/mL (≈ 50.1 nM) in the experiment with HL-60 (Homo sapiens, HL-60, 72 h, read-out: IC50) and 1.5 ng/mL (≈ 3.01 nM) in the experiment with L1210 (Mus musculus, L1210, 72 h, read-out: IC50).
Consider `CC1=C[C@H]2O[C@@H]3C[C@H]4OC(=O)/C=C\C=C\[C@H]([C@@H](C)O)OCC/C(C)=C/C(=O)OC[C@@]2(CC1)[C@]4(C)[C@]31CO1` [RORIDIN E], for which the IC50 in the experiment on HL-60 (hl-60) came out at 0.3 ng/mL (≈ 0.583 nM); with L1210 (l1210), 0.2 ng/mL (≈ 0.389 nM).
For `CC1=C[C@H]2O[C@@H]3C[C@H]4OC(=O)/C=C\C=C\C(=O)OCC[C@@H](C)[C@H](O)C(=O)OC[C@@]2(CC1)[C@]4(C)[C@]31CO1` [VERRUCARIN A], in that order: 0.2 ng/mL (≈ 0.398 nM) and 0.35 ng/mL (≈ 0.696 nM).
The matching figures for `CC1=C[C@H]2O[C@@H]3C[C@H]4OC(=O)/C=C\C=C\C(=O)OCC/C(C)=C/C(=O)OC[C@@]2(CC1)[C@]4(C)[C@]31CO1` [VERRUCARIN J]: 2.5 ng/mL (≈ 5.16 nM) and 2.5 ng/mL (≈ 5.16 nM).

For the origin of these results see ChEMBL document CHEMBL1150806, “A new macrocyclic trichothecene, 12,13-deoxyroridin E, produced by the marine-derived fungus Myrothecium roridum collected in Palau” (J Nat Prod, 2001).
